Results as given in the NIST ThermoML archive (doi:10.1016/j.jct.2018.03.025).
± gives the expanded uncertainty stated by the source.

Experiments:
[1] = refractive index (Na D-line) (dimensionless); settings: 298.2 K; 101.33 kPa; Liquid; Standard Abbe refractometry
[2] = 298.2 K; 101.33 kPa; Liquid; Vibrating tube method
[3] = wn = mass fraction of the nth substance listed; settings: 298.2 K; 101.3 kPa; Liquid; Vibrating tube method; w1 = 0.85
[4] = refractive index (Na D-line) (dimensionless); wn = mass fraction of the nth substance listed; settings: 298.2 K; 101.3 kPa; Liquid; Standard Abbe refractometry; w1 = 0.85

With `O` [water] the refractive index [1] was 1.3325 ± 0.001.
`CCCOC(C)=O` [propyl ethanoate] showed a mass density [2] of 882.26 ± 1.2 kg/m3 and a refractive index [1] of 1.383 ± 0.0011.
Work on `O=P(O)(O)O` [phosphoric acid] + O yielded a mass density [3] of 1682.7 ± 1.1 kg/m3 and a refractive index [4] of 1.432 ± 0.001.
For `CCCCCOC(C)=O` [pentyl ethanoate], the mass density [2] was 872.02 ± 1.2 kg/m3 and the refractive index [1] was 1.3991 ± 0.0011.
